{
  "source": "patent US10314877B2",
  "about": "“Method for lymph drainage” (ABOCA S.P.A. SOCIETÀ AGRICOLA, priority 2015, dated 2019)",
  "key": {"[1]": {"tested_on": "occludin and ZO-1 in confluent HDLEC and HDBEC cells", "assay": "Immunofluorescence analysis of tight junction proteins occludin and ZO-1", "format": "cell-based, human", "details": "IL-1beta alone 10 ng/ml, 1 hour", "protocol": "FIG. 11 reports the data of immunofluorescence analyses of occludin (upper boxes) and of the protein ZO-1 (lower boxes) in confluent HDLEC (A) and HDBEC (B) cells treated with the following stimuli: no stimulus, IL-1beta alone (10 ng/ml, 1 hour), mixture of the invention alone (10 micrograms/ml 18 hours); mixture of the invention (18 hours)+IL-1beta (1 hour). The confocal images were taken with 60× enlargement, the scale bar=10 micrometers.\nOccludin and ZO-1 were assessed as markers representative of tight endothelial junctions. The confluent cells express these markers, whereas they are reduced following treatment with IL-1beta.\nThe proteins of occluding tight junction and zona occludens 1 (ZO-1) expressed on the cell surface were visualised using confocal analysis. The cells were plated 5×10^4 on 1 cm circular glass slides. After 24 hours the cells were washed and treated with the mentioned stimulants. The immunofluorescence analysis was carried out as reported in the materials and methods of Monti et al, Pharmacol Res 2013; 76:171-81."}, "[2]": {"tested_on": "Human Dermal Lymphatic Endothelial Cells (HDLEC)", "assay": "Vascular (endothelial) permeability test, FITC-dextran passage through lymphatic endothelial monolayer", "format": "cell-based", "details": "IL-1β 10 ng/ml 1 h, no extract", "protocol": "In box A of FIG. 1 what is shown is the model in which lymphatic or hematic endothelial cells are measured in culture on a semi-permeable membrane, with presence of culture medium above and below said membrane, so as to allow the passage of components present in the medium when the cells are not strictly linked to one another, and FITCH-dextran molecules are inserted in the culture medium above the cells.\nQuantification by means of fluorescence of the FITC-dextran complex provides a measure of the permeability of the endothelium. […]\nThe authors have therefore used a model, shown schematically in FIG. 1, to study the effects of various plant extracts on endothelia of blood or lymphatic vessels. […] The degree of permeability has been determined by way of experiment by measuring the amount of fluorescent probe that crosses the endothelial barrier separating the two compartments representing, respectively, the lumen of the vessel (above the semi-permeable membrane) and the interstice (below the semi-permeable membrane). […]\nThe samples were assessed in 2-3 concentrations vs. vehicle alone on the cell cultures, untreated and treated with IL1beta (10 ng/ml), to understand if they have any effect in themselves on undamaged cells and if the tested substances are able to reverse the rise in permeability induced by IL1beta. […]"}},
  "data": [
    {"substance": "IL-1β: interleukin beta, inflammatory agent used to raise endothelial permeability", "values": [
      {"measurement": "tight junction markers occludin and ZO-1", "setting": "[1]", "result": "reduced"},
      {"measurement": "permeability of endothelial cells treated with IL-1β alone (healthy cells = 100%)", "setting": "[2]", "result": "approximately 160%"}
    ]}
  ]
}
